Results: ChEMBL document CHEMBL3832761, “MMV Pathogen Box Bioactivity Data” (2017)
In brackets after ≈: the same amount, converted by molar mass.

Assays:
Type in all cases: functional
[1] = system: Mycobacterium tuberculosis; assay: AntiMycobacterium tuberculosis activity Replicating form: Average MIC90 (uM)
[2] = system: Mycobacterium tuberculosis; assay: AntiMycobacterium tuberculosis activity day 21 MIC99 in 7H9/2.5mM butyrate/pH6/0.1mM nitrite MIC99 (uM); conditions: 504 h
[3] = system: Mycobacterium tuberculosis; assay: AntiMycobacterium tuberculosis activity 1-week 7H9/glucose/BSA/Tx MIC (uM); conditions: 168 h
[4] = system: Mycobacterium tuberculosis; assay: AntiMycobacterium tuberculosis activity 1-week 7H9/cholesterol/BSA/Tx MIC (uM); conditions: 168 h
[5] = system: Mycobacterium tuberculosis; assay: AntiMycobacterium tuberculosis activity day 21 in 7H9/2.5mM butyrate/pH6/0.1mM nitrite MIC90 (uM); conditions: 504 h
[6] = system: Mycobacterium tuberculosis; assay: AntiMycobacterium tuberculosis activity 2-week 7H9/glucose/BSA/Tx MIC (uM); conditions: 336 h
[7] = system: Mycobacterium tuberculosis; assay: AntiMycobacterium tuberculosis activity 1-week 7H9/ADC/Tw MIC (uM); conditions: 168 h
[8] = system: Mycobacterium tuberculosis; assay: (§1) AntiMycobacterium tuberculosis activity day 10 in 7H9/2.5mM butyrate/pH6/0.1mM nitrite MIC90 (uM); conditions: 240 h
[9] = system: Mycobacterium tuberculosis; assay: AntiMycobacterium tuberculosis activity 2-week Alamar Blue 7H9/cholesterol/BSA/Tx MIC (uM); conditions: 336 h
[10] = system: HepG2; assay: HepG2 CC50 (uM) Cytotoxicity; conditions: Homo sapiens
[11] = system: Mycobacterium tuberculosis; assay: AntiMycobacterium tuberculosis activity 2-week 7H9/ADC/Tw MIC (uM); conditions: 336 h
[12] = system: Mycobacterium tuberculosis; assay: AntiMycobacterium tuberculosis activity 2-week GAST/Fe MIC (uM); conditions: 336 h
[13] = system: Mycobacterium tuberculosis; assay: AntiMycobacterium tuberculosis activity 1-week GAST/Fe MIC (uM); conditions: 168 h
[14] = system: Mycobacterium tuberculosis; assay: AntiMycobacterium tuberculosis activity 2-week 7H9/DPPC/cholesterol/BSA/Tx MIC (uM); conditions: 336 h
[15] = system: Mycobacterium tuberculosis; assay: as §1; conditions: 240 h; remark: listed apart in the source
[16] = system: Mycobacterium tuberculosis; assay: AntiMycobacterium tuberculosis activity 2-week Alamar Blue 7H9/ADC/Tw MIC (uM); conditions: 336 h
[17] = system: Mycobacterium tuberculosis; assay: AntiMycobacterium tuberculosis activity Non-Replicating form: Average MIC90 (uM)
[18] = system: Mycobacterium tuberculosis; assay: AntiMycobacterium tuberculosis activity 1-week 7H9/DPPC/cholesterol/BSA/Tx MIC (uM); conditions: 168 h

SMILES | MIC90 [1] [µM] | MIC [2] [µM] | MIC [3] [µM] | MIC [4] [µM] | MIC90 [5] [µM] | MIC [6] [µM] | MIC [7] [µM] | MIC90 [8] [µM] | MIC [9] [µM] | CC50 [10] [µM] | MIC [11] [µM] | MIC [12] [µM] | MIC [13] [µM] | MIC [14] [µM] | MIC90 [15] [µM] | MIC [16] [µM] | MIC90 [17] [µM] | MIC [18] [µM]
CC(C)=CCC/C(C)=C\CNCCNC1C2CC3CC(C2)CC1C3 (configuration not stated) | 1.24 (≈ 0.41 µg/mL) | > 50 | 0.6 (≈ 0.198 µg/mL) | 0.39 (≈ 0.129 µg/mL) | > 50 | 1.2 (≈ 0.397 µg/mL) | 0.78 (≈ 0.258 µg/mL) | > 50 | 0.78 (≈ 0.258 µg/mL) | 7.1 | 1.2 (≈ 0.397 µg/mL) | 0.78 (≈ 0.258 µg/mL) | 0.39 (≈ 0.129 µg/mL) | 0.6 (≈ 0.198 µg/mL) | > 50 | 1.2 (≈ 0.397 µg/mL) | 5.3 (≈ 1.75 µg/mL) | 0.39 (≈ 0.129 µg/mL)
COc1cc(C(F)(F)F)nc2ccc(C)c(N)c12 | > 100 | > 50 | 25 (≈ 6.41 µg/mL) | 2.3 (≈ 0.589 µg/mL) | 6.25 (≈ 1.6 µg/mL) | > 50 | > 50 | 3.12 (≈ 0.799 µg/mL) | 3.13 (≈ 0.802 µg/mL) | > 100 | > 50 | 0.6 (≈ 0.154 µg/mL) | 0.2 (≈ 0.0512 µg/mL) | 50 (≈ 12.8 µg/mL) | > 50 | 12.5 (≈ 3.2 µg/mL) | 16.1 (≈ 4.12 µg/mL) | 4.7 (≈ 1.2 µg/mL)
CNc1snc(C)c1C(=O)NCCOc1ccc(OC)cc1 | > 100 | 50 (≈ 16.1 µg/mL) | 50 (≈ 16.1 µg/mL) | 3.13 (≈ 1.01 µg/mL) | 50 (≈ 16.1 µg/mL) | > 50 | > 50 | 6.25 (≈ 2.01 µg/mL) | 3.13 (≈ 1.01 µg/mL) | > 100 | > 50 | 0.78 (≈ 0.251 µg/mL) | 0.2 (≈ 0.0643 µg/mL) | 50 (≈ 16.1 µg/mL) | 6.25 (≈ 2.01 µg/mL) | 12.5 (≈ 4.02 µg/mL) | 19.8 (≈ 6.36 µg/mL) | 19 (≈ 6.11 µg/mL)
O=C(Nc1nnc(-c2ccc(Cl)s2)o1)c1ccc(Cl)s1 | 35.2 (≈ 12.2 µg/mL) | > 50 | 4.7 (≈ 1.63 µg/mL) | 3.13 (≈ 1.08 µg/mL) | 6.25 (≈ 2.16 µg/mL) | 6.25 (≈ 2.16 µg/mL) | 9.4 (≈ 3.25 µg/mL) | 6.5 (≈ 2.25 µg/mL) | 6.25 (≈ 2.16 µg/mL) | 50.1 | 9.4 (≈ 3.25 µg/mL) | 1.2 (≈ 0.415 µg/mL) | 0.78 (≈ 0.27 µg/mL) | 12.5 (≈ 4.33 µg/mL) | > 50 | 9.4 (≈ 3.25 µg/mL) | 2.76 (≈ 0.956 µg/mL) | 6.25 (≈ 2.16 µg/mL)
CC1=NN(c2nc3ccccc3s2)C(=O)C1Cc1cccc2ccccc12 (configuration not stated) | 96.7 (≈ 35.9 µg/mL) | 12.5 (≈ 4.64 µg/mL) | 12.5 (≈ 4.64 µg/mL) | 12.5 (≈ 4.64 µg/mL) | 12.5 (≈ 4.64 µg/mL) | 12.5 (≈ 4.64 µg/mL) | 19 (≈ 7.06 µg/mL) | 6.25 (≈ 2.32 µg/mL) | 19 (≈ 7.06 µg/mL) | 21.9 | 25 (≈ 9.29 µg/mL) | 3.13 (≈ 1.16 µg/mL) | 1.56 (≈ 0.579 µg/mL) | 12.5 (≈ 4.64 µg/mL) | 12.5 (≈ 4.64 µg/mL) | 25 (≈ 9.29 µg/mL) | > 100 | 12.5 (≈ 4.64 µg/mL)
CCC(Sc1nc2ccccc2o1)C(=O)Nc1nnc(C)s1 (configuration not stated) | 68.4 (≈ 22.9 µg/mL) | > 50 | > 50 | > 50 | 50 (≈ 16.7 µg/mL) | > 50 | > 50 | 50 (≈ 16.7 µg/mL) | > 50 | > 100 | > 50 | 12.5 (≈ 4.18 µg/mL) | 9.4 (≈ 3.14 µg/mL) | > 50 | > 50 | > 50 | 4.49 (≈ 1.5 µg/mL) | > 50
CC(C)(C(=O)Nc1ccc(F)cc1)n1cc(-c2ccccc2F)cn1 | 4.51 (≈ 1.54 µg/mL) | 12.5 (≈ 4.27 µg/mL) | 3.13 (≈ 1.07 µg/mL) | 0.6 (≈ 0.205 µg/mL) | 6.25 (≈ 2.13 µg/mL) | 3.13 (≈ 1.07 µg/mL) | 1.56 (≈ 0.533 µg/mL) | 6.25 (≈ 2.13 µg/mL) | 1.56 (≈ 0.533 µg/mL) | > 100 | 1.56 (≈ 0.533 µg/mL) | 2.3 (≈ 0.785 µg/mL) | 2.3 (≈ 0.785 µg/mL) | 1.56 (≈ 0.533 µg/mL) | 12.5 (≈ 4.27 µg/mL) | 2.3 (≈ 0.785 µg/mL) | 3.6 (≈ 1.23 µg/mL) | 2.3 (≈ 0.785 µg/mL)
Cn1c(=O)c2c(S(C)(=O)=O)snc2n(C)c1=O | 15.4 (≈ 4.24 µg/mL) | 12.5 (≈ 3.44 µg/mL) | 12.5 (≈ 3.44 µg/mL) | 25 (≈ 6.88 µg/mL) | 12.5 (≈ 3.44 µg/mL) | 19 (≈ 5.23 µg/mL) | 19 (≈ 5.23 µg/mL) | 6.25 (≈ 1.72 µg/mL) | 25 (≈ 6.88 µg/mL) | 1.1 | 25 (≈ 6.88 µg/mL) | 6.25 (≈ 1.72 µg/mL) | 4.7 (≈ 1.29 µg/mL) | 37 (≈ 10.2 µg/mL) | 12.5 (≈ 3.44 µg/mL) | 25 (≈ 6.88 µg/mL) | < 0.23 | 19 (≈ 5.23 µg/mL)
N#Cc1nc(-c2ccccc2)oc1S(=O)(=O)c1ccc(Cl)cc1 | 2.59 (≈ 0.893 µg/mL) | > 50 | 3.13 (≈ 1.08 µg/mL) | 6.25 (≈ 2.15 µg/mL) | 12.5 (≈ 4.31 µg/mL) | 6.25 (≈ 2.15 µg/mL) | 3.13 (≈ 1.08 µg/mL) | 6.25 (≈ 2.15 µg/mL) | 12.5 (≈ 4.31 µg/mL) | 2.2 | 6.25 (≈ 2.15 µg/mL) | 0.6 (≈ 0.207 µg/mL) | 0.6 (≈ 0.207 µg/mL) | 12.5 (≈ 4.31 µg/mL) | > 50 | 6.25 (≈ 2.15 µg/mL) | 0.41 (≈ 0.141 µg/mL) | 6.25 (≈ 2.15 µg/mL)
